Measurements from patent publication US12331054B2, “Perk inhibiting imidazolopyrazine compounds” (HiberCell, Inc., priority 2019, dated 2025).

Tests used:
[1] = target: Recombinant human EIF2AK3 (PERK) catalytic domain (amino acids 536-1116) (Homo sapiens (Human), UniProt Q9NZJ5); experiment: PERK In Vitro Activity Assay (isolated), TR-FRET kinase assay; settings: isolated PERK enzyme, 1.5 μM ATP, read-out: Biochemical IC50
Excerpt: PERK In Vitro Activity Assay (isolated):
In vitro Inhibition of PERK Enzyme Activity (isolated) Recombinant human EIF2AK2 (PKR) catalytic domain (amino acids 252-551), EIF2AK3 (PERK) catalytic domain (amino acids 536-1116), GFP-eIF2a substrate, and Terbium-labelled phospho-eIF2a antibody is obtained (Invitrogen, Carlsbad, CA).
Express and purify HIS-SUMO-GCN2 catalytic domain (amino acids 584-1019) from E. coli. Perform TR-FRET kinase assays in the absence or presence of inhibitors in a reaction buffer consisting of 50 mM HEPES, pH 7.5, 10 mM MgCb, 1.0 mM EGTA, and 0.01% Brij-35, and 100-200 nM GFP-eIF2a substrate. […] Add test compound, initiate the reaction by addition of enzyme, and incubate at room temperature for 45 minutes. Stop the reaction by addition of EDTA to a final concentration of 10 mM, add Terbium-labelled phospho-eIF2a antibody at a final concentration of 2 nM, and incubate for 90 minutes. Monitor the resulting fluorescence in an EnVison® Multilabel reader (PerkinElmer, Waltham, MA). Determine TR-FRET ratios and the resulting IC50 values using a 4-parameter nonlinear logistic equation as shown: Y=(A+((B−A)/(1+(C/x)AD)))) where, Y=% specific inhibition, A=Bottom of the curve, B=Top of the curve, C=absolute IC50 (concentration causing 50% inhibition), and D=hill slope.

[2] = system: eIF2α in HEK293-EGFP-eIF2α cells; experiment: PERK Cellular Assay (HEK293-EGFP-eIF2α cells, tunicamycin-induced ER stress, TR-FRET); assay type: cell-based; settings: tunicamycin 2 hours
Experimental: Stable cell lines were created in HEK293 cells using lentiviral particles harboring an expression vector for GFP-eIF2α. Cells were selected using puromycin and enriched using fluorescence activated cell sorting against GFP. HEK293-EGFP-eIF2α cells were plated at 5000 cells/well in 384-well assay plates and incubated overnight at 37° C., 5% CO2. Inhibitor compounds were added to the wells by Echo acoustic dispensing and incubated for 30 minutes at 37° C., 5% CO2 prior to induction of ER stress by addition of tunicamycin to […] for 2 hours. Cells were lysed and TR-FRET was measured in an EnVision plate reader (PerkinElmer). FRET ratio data was normalized to signal from lysates treated with DMSO vehicle control and plotted as percent inhibition against 10-point; 3-fold dilution series of inhibitors. IC50 values were calculated using 4-parameter logistical fitting in XLFit.

Sequence of Recombinant human EIF2AK3 (PERK) catalytic domain (amino acids 536-1116) (Q9NZJ5 536-1116): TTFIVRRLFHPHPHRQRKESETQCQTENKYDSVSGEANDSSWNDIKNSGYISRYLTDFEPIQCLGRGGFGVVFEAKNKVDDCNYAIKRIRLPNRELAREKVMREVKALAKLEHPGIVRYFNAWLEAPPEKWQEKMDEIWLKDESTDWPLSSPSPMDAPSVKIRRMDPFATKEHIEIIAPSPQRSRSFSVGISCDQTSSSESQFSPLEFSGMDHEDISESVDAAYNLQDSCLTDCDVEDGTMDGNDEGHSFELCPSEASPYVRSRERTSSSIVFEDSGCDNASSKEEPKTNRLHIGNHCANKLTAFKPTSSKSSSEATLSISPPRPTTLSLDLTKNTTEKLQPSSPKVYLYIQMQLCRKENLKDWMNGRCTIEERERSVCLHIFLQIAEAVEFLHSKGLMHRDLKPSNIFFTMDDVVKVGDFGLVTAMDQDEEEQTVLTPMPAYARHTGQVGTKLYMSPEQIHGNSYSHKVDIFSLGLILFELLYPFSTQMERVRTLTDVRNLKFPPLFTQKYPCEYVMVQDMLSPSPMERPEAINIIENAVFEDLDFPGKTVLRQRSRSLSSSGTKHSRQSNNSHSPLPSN

IC50 [1]	SMILES	IC50 [2]	IC50 ([2]; 2 h)
1 to 25 nM	Cc1cn2c(C)nc(-c3ccc(NC(=O)C(O)c4cccc(F)c4)cc3C)c2c(N)n1 (single isomer, unassigned) [Example 3, N-(4-(8-amino-3,6-dimethylimidazo[1,5-a]pyrazin-1-yl)-3-methylphenyl)-2-(3-fluorophenyl)-2-hydroxyacetamide]	26 to 50 nM	
51 to 100 nM	Cc1cn2c(C)nc(-c3ccc(NC(=O)C(O)c4cccc(F)c4)cc3C)c2c(N)n1 (single isomer, unassigned) [Example 4, N-(4-(8-amino-3,6-dimethylimidazo[1,5-a]pyrazin-1-yl)-3-methylphenyl)-2-(3-fluorophenyl)-2-hydroxyacetamide]	251 to 500 nM	
1 to 25 nM	Cc1cc(NC(=O)C(O)c2cccc(F)c2)ccc1-c1nc(C)n2ccnc(N)c12 (stereo not shown) [Example 1, N-(4-(8-amino-3-methylimidazo[1,5-a]pyrazin-1-yl)-3-methylphenyl)-2-(3-fluorophenyl)-2-hydroxyacetamide]	26 to 50 nM	
26 to 50 nM	Cc1cc(NC(=O)C(O)c2cccc(F)c2)ccc1-c1nc(C)n2ccnc(N)c12 (stereo not shown) [Example 2, N-(4-(8-amino-3-methylimidazo[1,5-a]pyrazin-1-yl)-3-methylphenyl)-2-(3-fluorophenyl)-2-hydroxyacetamide]	251 to 500 nM	
1 to 25 nM	[2H]C([2H])([2H])c1nc(-c2ccc(NC(=O)C(O)c3cccc(F)c3)cc2C)c2c(N)nc(C)cn12 (stereo not shown) [Example 5, N-(4-(8-amino-6-methyl-3-(trideuteriomethyl)imidazo[1,5-a]pyrazin-1-yl)-3-methylphenyl)-2-(3-fluorophenyl)-2-hydroxyacetamide]		1 to 25 nM
1 to 25 nM	Cc1cc(NC(=O)C(O)c2cccc(F)c2)ccc1-c1nc(C)n2c(C)cnc(N)c12 (stereo not shown) [Example 8, N-(4-(8-amino-3,5-dimethylimidazo[1,5-a]pyrazin-1-yl)-3-methylphenyl)-2-(3-fluorophenyl)-2-hydroxyacetamide]	26 to 50 nM	
51 to 100 nM	Cc1cc(NC(=O)C(O)c2cccc(F)c2)ccc1-c1nc(C)n2c(C)cnc(N)c12 (stereo not shown) [Example 9, N-(4-(8-amino-3,5-dimethylimidazo[1,5-a]pyrazin-1-yl)-3-methylphenyl)-2-(3-fluorophenyl)-2-hydroxyacetamide]	251 to 500 nM	
1 to 25 nM	[2H]C([2H])([2H])c1nc(-c2ccc(NC(=O)C(O)c3cccc(F)c3)cc2C)c2c(N)ncc(C)n12 (stereo not shown) [Example 10, N-(4-(8-amino-5-methyl-3-(trideuteriomethyl)imidazo[1,5-a]pyrazin-1-yl)-3-methylphenyl)-2-(3-fluorophenyl)-2-hydroxyacetamide]		1 to 25 nM
	[2H]C([2H])([2H])c1nc(-c2ccc(NC(=O)C(O)c3cccc(F)c3)cc2C)c2c(N)ncc(C)n12 (stereo not shown) [Example 11, N-(4-(8-amino-5-methyl-3-(trideuteriomethyl)imidazo[1,5-a]pyrazin-1-yl)-3-methylphenyl)-2-(3-fluorophenyl)-2-hydroxyacetamide]	1 to 25 nM	
1 to 25 nM	[2H]C([2H])([2H])c1nc(-c2ccc(NC(=O)C(O)c3cccc(C(F)(F)F)c3)cc2C)c2c(N)nc(C)cn12 (stereo not shown) [Example 14, N-[4-[8-amino-6-methyl-3-(trideuteriomethyl)imidazo[1,5-a]pyrazin-1-yl]-3-methyl-phenyl]-2-hydroxy-2-[3-(trifluoromethyl)phenyl]acetamide]	26 to 50 nM	
101 to 250 nM	[2H]C([2H])([2H])c1nc(-c2ccc(NC(=O)C(O)c3cccc(C(F)(F)F)c3)cc2C)c2c(N)nc(C)cn12 (stereo not shown) [Example 15, N-[4-[8-amino-6-methyl-3-(trideuteriomethyl)imidazo[1,5-a]pyrazin-1-yl]-3-methyl-phenyl]-2-hydroxy-2-[3-(trifluoromethyl)phenyl]acetamide]	251 to 500 nM	
	Cc1cn2c(C3CC(C)(O)C3)nc(-c3ccc(NC(=O)C(O)c4cccc(F)c4)cc3C)c2c(N)n1 (stereo not shown) [Example 24, N-(4-(8-amino-3-(3-hydroxy-3-methylcyclobutyl)-6-methylimidazo [1,5-a]pyrazin-1-yl)-3-methyl-phenyl)-2-(3-fluorophenyl)-2-hydroxyacetamide]	101 to 250 nM	
	Cc1cn2c(C3CC(C)(O)C3)nc(-c3ccc(NC(=O)C(O)c4cccc(F)c4)cc3C)c2c(N)n1 (stereo not shown) [Example 25, N-(4-(8-amino-3-(3-hydroxy-3-methylcyclobutyl)-6-methylimidazo [1,5-a]pyrazin-1-yl)-3-methyl-phenyl)-2-(3-fluorophenyl)-2-hydroxyacetamide]	1000 to 2000 nM	
1 to 25 nM	[2H]C([2H])([2H])c1nc(-c2ccc(NC(=O)C(O)c3cccc(Cl)c3)cc2C)c2c(N)ncc(C(F)(F)F)n12 (stereo not shown) [Example 40, N-[4-[8-amino-3-(trideuteriomethyl)-5-(trifluoromethyl)imidazo[1,5-a]pyrazin-1-yl]-3-methyl-phenyl]-2-(3-chlorophenyl)-2-hydroxy-acetamide]		
	[2H]C([2H])([2H])c1nc(-c2ccc(NC(=O)C(O)c3cc(F)cc(F)c3)cc2C)c2c(N)ncc(Cl)n12 (stereo not shown) [Example 49, N-[4-[8-amino-5-chloro-3-(trideuteriomethyl)imidazo[1,5-a]pyrazin-1-yl]-3-methyl-phenyl]-2-(3,5-difluoro-phenyl)-2-hydroxy-acetamide]	1 to 25 nM	
1 to 25 nM	[2H]C([2H])([2H])c1nc(-c2ccc(NC(=O)C(O)c3cccc(Cl)c3)cc2F)c2c(N)ncc(Cl)n12 (stereo not shown) [Example 86, N-[4-[8-amino-5-chloro-3-(trideuteriomethyl)imidazo[1,5-a]pyrazin-1-yl]-3-fluoro-phenyl]-2-(3-chlorophenyl)-2-hydroxy-acetamide]		
	[2H]C([2H])([2H])c1nc(-c2ccc(NC(=O)C(O)c3cccc(C(F)(F)F)c3)cc2F)c2c(N)nc(C)cn12 (stereo not shown) [Example 97, N-[4-[8-amino-6-methyl-3-(trideuteriomethyl)imidazo[1,5-a]pyrazin-1-yl]-3-fluoro-phenyl]-2-hydroxy-2-[3-(trifluoromethyl)phenyl]acetamide]	251 to 500 nM	
	[2H]C([2H])([2H])c1nc(-c2ccc(NC(=O)C(O)c3cccc(C(F)(F)F)c3)cc2F)c2c(N)ncc(Cl)n12 (stereo not shown) [Example 101, N-[4-[8-amino-5-chloro-3-(trideuteriomethyl)imidazo[1,5-a]pyrazin-1-yl]-3-fluoro-phenyl]-2-hydroxy-2-[3-(trifluoromethyl)phenyl]acetamide]	1 to 25 nM	
	[2H]C([2H])([2H])c1nc(-c2ccc(NC(=O)C(O)c3cc(F)cc(F)c3)cc2F)c2c(N)ncc(Cl)n12 (stereo not shown) [Example 109, N-[4-[8-amino-5-chloro-3-(trideuteriomethyl)imidazo[1,5-a]pyrazin-1-yl]-3-fluoro-phenyl]-2-(3,5-difluoro-phenyl)-2-hydroxy-acetamide]	1 to 25 nM	
	Cc1cn2c(C)nc(-c3ccc(NC(=O)C(O)c4cccc(F)c4)c(F)c3)c2c(N)n1 (stereo not shown) [Example 118, N-(4-(8-amino-3,6-dimethyl-imidazo[1,5-a]pyrazin-1-yl)-2-fluorophenyl)-2-(3-fluorophenyl)-2-hydroxy-acetamide]	4000 to 5000 nM	
	Cc1cn2c(C)nc(-c3ccc(NC(=O)C(O)c4cccc(F)c4)c(F)c3)c2c(N)n1 (stereo not shown) [Example 119, N-(4-(8-amino-3,6-dimethyl-imidazo[1,5-a]pyrazin-1-yl)-2-fluorophenyl)-2-(3-fluorophenyl)-2-hydroxy-acetamide]	26 to 50 nM	
	[2H]C([2H])([2H])c1nc(-c2ccc(NC(=O)C(O)c3cccc(F)c3)c(F)c2)c2c(N)nc(C)cn12 (stereo not shown) [Example 120, N-[4-[8-amino-6-methyl-3-(trideuteriomethyl)imidazo[1,5-a]pyrazin-1-yl]-2-fluorophenyl]-2-(3-fluorophenyl)-2-hydroxy-acetamide]	1000 to 2000 nM	
	[2H]C([2H])([2H])c1nc(-c2ccc(NC(=O)C(O)c3cccc(F)c3)c(F)c2)c2c(N)nc(C)cn12 (stereo not shown) [Example 121, N-[4-[8-amino-6-methyl-3-(trideuteriomethyl)imidazo[1,5-a]pyrazin-1-yl]-2-fluorophenyl]-2-(3-fluorophenyl)-2-hydroxy-acetamide]	51 to 100 nM	
	[2H]C([2H])([2H])c1nc(-c2ccc(NC(=O)C(O)c3cccc(F)c3)nc2C)c2c(N)ncc(C)n12 (stereo not shown) [Example 172, N-[5-[8-amino-5-methyl-3-(trideuteriomethyl)imidazo[1,5-a]pyrazin-1-yl]-6-methyl-2-pyridyl]-2-(3-fluorophenyl)-2-hydroxy-acetamide]	501 to 1000 nM	
